# Data from the supplement of paper PMC10307832.
# Experiments:
# Assay in all cases: relative viability (nuclei count vs DMSO), 5 days (fraction); higher = more cells survive
# [1] = tested on: 201T
# Outline: (§1)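 Relative viability was taken as the ratio of nuclei in treated wells to nuclei in vehicle wells. Lung cancer cell lines in 1536-well plates received compounds by pin tool one day after seeding, either one drug alone or a fixed anchor-drug dose plus five library-drug doses (not always all listed) in √10 steps. Nuclei were counted on 4× images after 5 days of treatment, and values are medians of duplicate plates.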
# [2] = tested on: A-427
# Outline: as §1
# [3] = tested on: COR-L23
# Outline: as §1
# [4] = tested on: H3255
# Outline: as §1
# [5] = tested on: LCLC-103H
# Outline: as §1
# [6] = tested on: LCLC-97TM1
# Outline: as §1
# [7] = tested on: LK-2
# Outline: as §1
# [8] = tested on: LU99A
# Outline: as §1
# [9] = tested on: NCI-H1563
# Outline: as §1
# [10] = tested on: NCI-H1650
# Outline: as §1
# [11] = tested on: NCI-H1793
# Outline: as §1
# [12] = tested on: NCI-H1944
# Outline: as §1
# [13] = tested on: NCI-H2347
# Outline: as §1
# [14] = tested on: NCI-H23
# Outline: as §1
# [15] = tested on: NCI-H460
# Outline: as §1
# [16] = tested on: NCI-H650
# Outline: as §1
# [17] = tested on: NCI-H727
# Outline: as §1
# [18] = tested on: NCI-H838
# Outline: as §1
# [19] = tested on: PC-14
# Outline: as §1
# [20] = tested on: PC-3 [JPC-3]
# Outline: as §1
# [21] = tested on: SW 1573
# Outline: as §1
# [22] = tested on: SW 900
# Outline: as §1
compound,measurement,setting,value
CC1(C)CCC(c2ccc(Cl)cc2)=C(CN2CCN(c3ccc(C(=O)NS(=O)(=O)c4ccc(N[C@H](CCN5CCOCC5)CSc5ccccc5)c(S(=O)(=O)C(F)(F)F)c4)cc3)CC2)C1 [Navitoclax] + Cc1nc(Nc2ncc(C(=O)Nc3c(C)cccc3Cl)s2)cc(N2CCN(CCO)CC2)n1 [Dasatinib] (partner 0.075 µM),relative viability,[1]; first compound 0.005 µM,0.603
same,relative viability,[1]; first compound 0.01581 µM,0.662
same,relative viability,[1]; first compound 0.05 µM,0.587
same,relative viability,[1]; first compound 0.1581 µM,0.592
same,relative viability,[1]; first compound 0.5 µM,0.714
same,relative viability,[2]; first compound 0.005 µM,0.784
same,relative viability,[2]; first compound 0.01581 µM,0.694
same,relative viability,[2]; first compound 0.05 µM,0.71
same,relative viability,[2]; first compound 0.1581 µM,0.734
same,relative viability,[2]; first compound 0.5 µM,0.643
same,relative viability,[3]; first compound 0.005 µM,0.509
same,relative viability,[3]; first compound 0.01581 µM,0.595
same,relative viability,[3]; first compound 0.05 µM,0.521
same,relative viability,[3]; first compound 0.1581 µM,0.447
same,relative viability,[3]; first compound 0.5 µM,0.556
same,relative viability,[4]; first compound 0.005 µM,0.344
same,relative viability,[4]; first compound 0.01581 µM,0.424
same,relative viability,[4]; first compound 0.05 µM,0.346
same,relative viability,[4]; first compound 0.1581 µM,0.31
same,relative viability,[4]; first compound 0.5 µM,0.204
same,relative viability,[5]; first compound 0.005 µM,0.468
same,relative viability,[5]; first compound 0.01581 µM,0.496
same,relative viability,[5]; first compound 0.05 µM,0.31
same,relative viability,[5]; first compound 0.1581 µM,0.539
same,relative viability,[5]; first compound 0.5 µM,0.474
same,relative viability,[6]; first compound 0.005 µM,0.822
same,relative viability,[6]; first compound 0.01581 µM,0.939
same,relative viability,[6]; first compound 0.05 µM,0.648
same,relative viability,[6]; first compound 0.1581 µM,0.825
same,relative viability,[6]; first compound 0.5 µM,0.826
same,relative viability,[7]; first compound 0.005 µM,0.319
same,relative viability,[7]; first compound 0.01581 µM,0.368
same,relative viability,[7]; first compound 0.05 µM,0.309
same,relative viability,[7]; first compound 0.1581 µM,0.202
same,relative viability,[7]; first compound 0.5 µM,0.37
same,relative viability,[8]; first compound 0.005 µM,0.542
same,relative viability,[8]; first compound 0.01581 µM,0.879
same,relative viability,[8]; first compound 0.05 µM,0.418
same,relative viability,[8]; first compound 0.1581 µM,0.618
same,relative viability,[8]; first compound 0.5 µM,0.821
same,relative viability,[9]; first compound 0.005 µM,0.464
same,relative viability,[9]; first compound 0.01581 µM,0.458
same,relative viability,[9]; first compound 0.05 µM,0.46
same,relative viability,[9]; first compound 0.1581 µM,0.434
same,relative viability,[9]; first compound 0.5 µM,0.474
same,relative viability,[10]; first compound 0.005 µM,0.28
same,relative viability,[10]; first compound 0.01581 µM,0.38
same,relative viability,[10]; first compound 0.05 µM,0.314
same,relative viability,[10]; first compound 0.1581 µM,0.277
same,relative viability,[10]; first compound 0.5 µM,0.219
same,relative viability,[11]; first compound 0.005 µM,0.409
same,relative viability,[11]; first compound 0.01581 µM,0.325
same,relative viability,[11]; first compound 0.1581 µM,0.293
same,relative viability,[11]; first compound 0.5 µM,0.147
same,relative viability,[12]; first compound 0.005 µM,0.235
same,relative viability,[12]; first compound 0.01581 µM,0.235
same,relative viability,[12]; first compound 0.05 µM,0.268
same,relative viability,[12]; first compound 0.1581 µM,0.282
same,relative viability,[12]; first compound 0.5 µM,0.398
same,relative viability,[13]; first compound 0.005 µM,0.328
same,relative viability,[13]; first compound 0.01581 µM,1
same,relative viability,[13]; first compound 0.1581 µM,0.262
same,relative viability,[13]; first compound 0.5 µM,0.188
same,relative viability,[14]; first compound 0.005 µM,0.841
same,relative viability,[14]; first compound 0.01581 µM,0.79
same,relative viability,[14]; first compound 0.05 µM,0.627
same,relative viability,[14]; first compound 0.1581 µM,0.705
same,relative viability,[14]; first compound 0.5 µM,0.779
same,relative viability,[15]; first compound 0.005 µM,0.522
same,relative viability,[15]; first compound 0.01581 µM,0.609
same,relative viability,[15]; first compound 0.05 µM,0.651
same,relative viability,[15]; first compound 0.1581 µM,0.53
same,relative viability,[15]; first compound 0.5 µM,0.483
same,relative viability,[16]; first compound 0.005 µM,0.456
same,relative viability,[16]; first compound 0.01581 µM,0.473
same,relative viability,[16]; first compound 0.05 µM,0.463
same,relative viability,[16]; first compound 0.1581 µM,0.477
same,relative viability,[16]; first compound 0.5 µM,0.459
same,relative viability,[17]; first compound 0.01581 µM,0.364
same,relative viability,[17]; first compound 0.1581 µM,0.365
same,relative viability,[17]; first compound 0.5 µM,0.347
same,relative viability,[18]; first compound 0.005 µM,0.267
same,relative viability,[18]; first compound 0.01581 µM,0.334
same,relative viability,[18]; first compound 0.05 µM,0.26
same,relative viability,[18]; first compound 0.1581 µM,0.238
same,relative viability,[18]; first compound 0.5 µM,0.36
same,relative viability,[19]; first compound 0.005 µM,0.255
same,relative viability,[19]; first compound 0.01581 µM,0.317
same,relative viability,[19]; first compound 0.05 µM,0.228
same,relative viability,[19]; first compound 0.1581 µM,0.284
same,relative viability,[19]; first compound 0.5 µM,0.215
same,relative viability,[20]; first compound 0.005 µM,1.02
same,relative viability,[20]; first compound 0.01581 µM,1.07
same,relative viability,[20]; first compound 0.05 µM,0.773
same,relative viability,[20]; first compound 0.1581 µM,0.97
same,relative viability,[20]; first compound 0.5 µM,0.858
same,relative viability,[21]; first compound 0.005 µM,0.522
same,relative viability,[21]; first compound 0.01581 µM,0.699
same,relative viability,[21]; first compound 0.05 µM,0.637
same,relative viability,[21]; first compound 0.1581 µM,0.482
same,relative viability,[21]; first compound 0.5 µM,0.459
same,relative viability,[22]; first compound 0.005 µM,0.504
same,relative viability,[22]; first compound 0.01581 µM,0.537
same,relative viability,[22]; first compound 0.05 µM,0.475
same,relative viability,[22]; first compound 0.1581 µM,0.8
same,relative viability,[22]; first compound 0.5 µM,0.42
